The values that follow are results of earlier work, collected in patent US20230173142A1, “BALLISTIC DELIVERY TO MULTILAYERED TISSUES AND RELATED PARTICLES, COMPOSITIONS, METHODS AND SYSTEMS” (CALIFORNIA INSTITUTE OF TECHNOLOGY, priority 2021, published 2023).

Entries after “also recorded” stand apart in the source; their conditions may differ. Like-named read-outs stand apart in the source and are kept apart here.

Data set [1] concerns wound healing.
The subject of data set [2] is rabbit corneas. The following applies: rabbit corneas ex vivo.
Data set [3] relates to rabbit cornea. The following applies: rabbit cornea treated topically.
Data set [4] has as its system human cadaver corneas.
Data set [5] has as its target T1, lysyl oxidase (LOX) (Homo sapiens, UniProt P28300).
T1 sequence (P28300 169-417): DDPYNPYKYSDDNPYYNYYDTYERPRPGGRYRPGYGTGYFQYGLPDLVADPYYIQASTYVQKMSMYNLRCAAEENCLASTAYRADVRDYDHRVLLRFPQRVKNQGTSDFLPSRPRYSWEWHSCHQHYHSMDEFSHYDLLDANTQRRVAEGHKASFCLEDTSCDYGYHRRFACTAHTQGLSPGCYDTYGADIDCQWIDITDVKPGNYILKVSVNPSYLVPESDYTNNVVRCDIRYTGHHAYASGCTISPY
The following applies: increasing [Cu^2+].

Data set [6] relates to ear hole punch injury. The following applies: multiple peripheral subcutaneous injections of hydrogel over a 10-day period; Swiss Webster mice.

For the compound VEGF, the Effect entry in data set [1] (Material: Hydrogel) is “Enhanced wound healing, granulation, collagen deposition,”; in data set [1] (Material: Lyotropic liquid crystal), “Enhanced vascularization”.

`[Cu+2]` [Copper]: the biomechanical strength entry in data set [2] and in data set [4] was “increase biomechanical strength” throughout. For the same compound, the “crosslinking as measured by LNL” value in data set [3] was “increase crosslinking”. Further, the LOX activity entry in data set [5] is given as “restore LOX activity”.

Regarding “bFGF: growth factor/cytokine loaded in carrier material”, the Effect result in data set [1] (Material: Concentrate) is on record as “Enhanced wound closure, angiogenesis, collagen deposition,”; in data set [1] (Material: Hydrogel), “Enhanced wound closure, collagen deposition, vascularization,; also recorded: Enhanced wound closure, organized collageno depostion,; also recorded: Enhanced the formation of granulation tissue, increased angiogenesis,”.

As for “EGF: growth factor loaded in carrier material”, in data set [1] (Material: Nanoparticle), the Effect entry was “Accelerated migration of inflammatory cells during the inflammation; also recorded: Enhanced wound closure, collagen deposition, angiogenesis, and”.

As for SDF-1: stromal cell-derived factor-1, the Effect entry in data set [1] (Material: Hydrogel) is “Accelerated wound healing and increased vascularization”.

Regarding `O=C(O)c1c[nH]c2c(ccc3cccnc32)c1=O` [1,4-DPCA, 1,4-dihydrophenonthrolin-4-one-3-carboxylic acid], in data set [6], the “wound healing after ear hole punch injury” value is “regenerative wound healing”.

For “aFGF: growth factor/cytokine loaded in hydrogel”, the Effect entry in data set [1] (Material: Hydrogel) is “Accelerated cell proliferation, neo-vascularization, and wound healing”.
